According to US12064516B2, “Pharmaceutical formulations and uses thereof” (Aldeyra Therapeutics, Inc., priority 2020, dated 2024):

Columns and labels:
[1] = Pharmacokinetic comparison of ADX-102 (reproxalap) and compound I-1 in rats; format: in vivo, Sprague-Dawley rats
Protocol: Compound I-1 is the des-chloro analog of ADX-102. […] We have therefore investigated compound I-1 in 90-day toxicology studies in rat and dog as well as 10-day studies in man. We compared two data sets to contrast the pharmacokinetics of the two test articles. A 50 mg/kg oral dose PK study of compound I-1 was conducted in Sprague-Dawley rats using methylcellulose suspension. […] Both studies also incorporated intravenous administration in captisol for the calculation of clearance and steady state volume of distribution.
Both studies were dosed by oral gavage. Bioanalysis was conducted using LC-MS/MS. Further details of the experimental approach can be found in the individual reports.

[2] = Tolerability as a systemic dose, I-1 versus ADX-102; format: in vivo
Protocol: Compound I-1 is the des-chloro analog of ADX-102. […] We have therefore investigated compound I-1 in 90-day toxicology studies in rat and dog as well as 10-day studies in man. We compared two data sets to contrast the pharmacokinetics of the two test articles. A 50 mg/kg oral dose PK study of compound I-1 was conducted in Sprague-Dawley rats using methylcellulose suspension. A pharmacokinetic study of ADX-102 was also conducted in Sprague Dawley rats at a dose of 10 mg/kg in a methylcellulose suspension that also contained Tween 80. Both studies also incorporated intravenous administration in captisol for the calculation of clearance and steady state volume of distribution.

[3] = Phase 1 clinical trial, safety and tolerability (adverse events, labs, vitals, QTcF); settings: for subjects with TEAEs, %: subjects who received I-1
Description: This Phase 1 trial was a first-in-human, randomized, double-blind, placebo-controlled trial with a 3:1 randomization of I-1 and placebo. The trial was comprised of single ascending dose (SAD) and multiple ascending dose (MAD) protocols. MAD drug exposure was 10 days of twice-per-day (BID) administration.
A total of 54 healthy volunteers were randomized across two cohorts of varying doses: 41 subjects received I-1 and 13 subjects received placebo.
Thirty-one (31) subjects were randomized to varying doses: 23 subjects received I-1 and 8 subjects received placebo.

[4] = SD Rat, oral gavage 50 mg/kg, 0.5% MC
[5] = Sprague-Dawley, in vivo, SD Rat, oral gavage 50 mg/kg, 0.5% MC

For `CC(C)(O)c1nc2ccccc2cc1N` [I-1], the “AUC 0-inf/Dose” value [1, 4] was 153, the “AUC 0-t/Dose” value [1, 4] was 146 and the Vd ([1]; Sprague-Dawley, in vivo, SD Rat, intravenous data using captisol formulation, read-out: Vss) was 3.13 L/kg. For the same compound, the AUC(0-inf) [1, 5] was 7670 ng·h/mL, the AUC(0-t) [1, 5] was 7300 ng·h/mL and the Cmax [1, 5] was 4990 ng/mL. For the same compound, the Tmax [1, 5] was 19.2 min, the “dose-normalized AUC relative to ADX-102” value ([1]; rats, oral, I-1 50 mg/kg vs ADX-102 10 mg/kg) was “approximately double” and the “tolerability as a systemic dose compared with ADX-102” value [2] was “generally better tolerated than ADX-102”. The “intensity and relatedness of TEAEs” value ([3]; MAD) was “mild and deemed not to be related to the study drug”, the “subjects with TEAEs, %” value ([3]; MAD) was 17.4% and the “Pruritis, % of subjects” value ([3]; MAD, I-1 50 mg BID) was “(16.7%)”. For the same compound, the “Pruritis, N subjects” value ([3]; MAD, I-1 50 mg BID) was 1, the “Rhinitis, N subjects” value ([3]; MAD, I-1 50 mg BID) was 0 and the “URTI, N subjects” value ([3]; MAD, I-1 50 mg BID) was 0. The “Headache, N subjects” value ([3]; MAD, I-1 150 mg BID) was 0, the “Ligament sprain, N subjects” value ([3]; MAD, I-1 150 mg BID) was 0 and the “Muscle spasms, N subjects” value ([3]; MAD, I-1 150 mg BID) was 0. The “Nasal congestion, % of subjects” value ([3]; MAD, I-1 150 mg BID) was “(16.7%)”, the “Nasal congestion, N subjects” value ([3]; MAD, I-1 150 mg BID) was 1 and the “Pruritis, N subjects” value ([3]; MAD, I-1 150 mg BID) was 0. For the same compound, the “Rhinitis, N subjects” value ([3]; MAD, I-1 150 mg BID) was 0, the “URTI, N subjects” value ([3]; MAD, I-1 150 mg BID) was 0 and the “Headache, N subjects” value ([3]; MAD, I-1 350 mg BID) was 0. The “Ligament sprain, N subjects” value ([3]; MAD, I-1 350 mg BID) was 0, the “Muscle spasms, N subjects” value ([3]; MAD, I-1 350 mg BID) was 0 and the “Nasal congestion, N subjects” value ([3]; MAD, I-1 350 mg BID) was 0. The “Pruritis, N subjects” value ([3]; MAD, I-1 350 mg BID) was 0, the “URTI, % of subjects” value ([3]; MAD, I-1 350 mg BID) was “(20.0%)” and the “URTI, N subjects” value ([3]; MAD, I-1 350 mg BID) was 1. For the same compound, the “Headache, N subjects” value ([3]; MAD, I-1 600 mg BID) was 0, the “Ligament sprain, N subjects” value ([3]; MAD, I-1 600 mg BID) was 0 and the “Muscle spasms, N subjects” value ([3]; MAD, I-1 600 mg BID) was 0. For the same compound, the “Nasal congestion, N subjects” value ([3]; MAD, I-1 600 mg BID) was 0, the “Pruritis, N subjects” value ([3]; MAD, I-1 600 mg BID) was 0 and the “Rhinitis, % of subjects” value ([3]; MAD, I-1 600 mg BID) was “(16.7%)”. For the same compound, the “Rhinitis, N subjects” value ([3]; MAD, I-1 600 mg BID) was 1, the “URTI, N subjects” value ([3]; MAD, I-1 600 mg BID) was 0 and the “Headache, N subjects” value ([3]; MAD, I-1 Total) was 0. For the same compound, the “Ligament sprain, N subjects” value ([3]; MAD, I-1 Total) was 0, the “Muscle spasms, N subjects” value ([3]; MAD, I-1 Total) was 0 and the “Nasal congestion, % of subjects” value ([3]; MAD, I-1 Total) was “(4.3%)”. For the same compound, the “Nasal congestion, N subjects” value ([3]; MAD, I-1 Total) was 1, the “Pruritis, % of subjects” value ([3]; MAD, I-1 Total) was “(4.3%)” and the “Pruritis, N subjects” value ([3]; MAD, I-1 Total) was 1. The “Rhinitis, % of subjects” value ([3]; MAD, I-1 Total) was “(4.3%)”, the “Rhinitis, N subjects” value ([3]; MAD, I-1 Total) was 1 and the “URTI, % of subjects” value ([3]; MAD, I-1 Total) was “(4.3%)”. For the same compound, the “URTI, N subjects” value ([3]; MAD, I-1 Total) was 1, the QTcF prolongation ([3]; Phase 1) was “did not lead to QTcF prolongation” and the “changes in heart rate, blood pressure, respiratory rate, pulse oximetry, temperature” value ([3]; Phase 1) was “No clinically meaningful changes”. The “changes in hepatic or renal analytes (ALT, AST, ALP, amylase, GGT, bilirubin, creatinine kinase, creatinine)” value ([3]; Phase 1) was “No clinically meaningful changes”, the “changes in serum glucose” value ([3]; Phase 1) was “No changes” and the hematological changes ([3]; Phase 1) was “No clinically significant hematological changes”. The “subjects with QTcF ≥500 msec or a change of ≥60 msec from baseline” value ([3]; Phase 1) was “no subjects”, the “subjects with QTcF change of >30 msec from baseline” value ([3]; Phase 1, three in SAD, two in MAD) was “Five” and the “interruptions or discontinuations of study drug administration” value ([3]; Phase 1 SAD and MAD) was “no interruptions or discontinuations”. The “overall safety and tolerability” value ([3]; Phase 1 SAD and MAD) was “safe and tolerable”, the TEAE description ([3]; SAD, one subject in 100 mg dose cohort) was “syncope lasting less than a minute, moderate in intensity and deemed to be related to the study drug” and the TEAE description ([3]; SAD, one subject, single dose of 700 mg) was “sinus congestion, mild in intensity and deemed not to be related to I-1”. The “subjects with TEAEs, %” value ([3]; SAD) was 3.7% and the “subjects with treatment emergent adverse events (TEAEs), %” value ([3]; all subjects receiving I-1 (SAD and MAD)) was 9.4%.
